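96-well plates; 48 h exposure; 5 concentrations. Endpoints by linear interpolation between flanking doses. Not reached: highest tested concentration assigned. The concentration for full growth arrest is given as TGI.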
How the values were obtained:
Test in all cases: growth of human tumour cells (NCI), 48 h
786-0 renal = tested on: 786-0 renal
A549 NSCLC = tested on: A549 NSCLC
ACHN renal = tested on: ACHN renal
CAKI-1 renal = tested on: CAKI-1 renal
CCRF-CEM leukemia = tested on: CCRF-CEM leukemia
COLO 205 colon = tested on: COLO 205 colon
DU-145 prostate = tested on: DU-145 prostate
EKVX NSCLC = tested on: EKVX NSCLC
HCC-2998 colon = tested on: HCC-2998 colon
HCT-116 colon = tested on: HCT-116 colon
HCT-15 colon = tested on: HCT-15 colon
HL-60(TB) leukemia = tested on: HL-60(TB) leukemia
HOP-62 NSCLC = tested on: HOP-62 NSCLC
HOP-92 NSCLC = tested on: HOP-92 NSCLC
HS 578T breast = tested on: HS 578T breast
HT29 colon = tested on: HT29 colon
IGROV1 ovarian = tested on: IGROV1 ovarian
K-562 leukemia = tested on: K-562 leukemia
KM12 colon = tested on: KM12 colon
LOX IMVI melanoma = tested on: LOX IMVI melanoma
M14 melanoma = tested on: M14 melanoma
MALME-3M melanoma = tested on: MALME-3M melanoma
MCF7 breast = tested on: MCF7 breast
MDA-MB-231 breast = tested on: MDA-MB-231 breast
MDA-MB-435 = tested on: MDA-MB-435
MDA-N = tested on: MDA-N
MOLT-4 leukemia = tested on: MOLT-4 leukemia
NCI-H226 lung = tested on: NCI-H226 lung
NCI-H23 lung = tested on: NCI-H23 lung
NCI-H460 lung = tested on: NCI-H460 lung
NCI-H522 lung = tested on: NCI-H522 lung
NCI/ADR-RES ovarian = tested on: NCI/ADR-RES ovarian
OVCAR-3 ovarian = tested on: OVCAR-3 ovarian
OVCAR-4 ovarian = tested on: OVCAR-4 ovarian
OVCAR-5 ovarian = tested on: OVCAR-5 ovarian
OVCAR-8 ovarian = tested on: OVCAR-8 ovarian
PC-3 prostate = tested on: PC-3 prostate
RPMI-8226 leukemia = tested on: RPMI-8226 leukemia
RXF 393 renal = tested on: RXF 393 renal
SF-268 CNS = tested on: SF-268 CNS
SF-295 CNS = tested on: SF-295 CNS
SF-539 CNS = tested on: SF-539 CNS
SK-MEL-28 melanoma = tested on: SK-MEL-28 melanoma
SK-MEL-5 melanoma = tested on: SK-MEL-5 melanoma
SK-OV-3 ovarian = tested on: SK-OV-3 ovarian
SN12C renal = tested on: SN12C renal
SNB-19 CNS = tested on: SNB-19 CNS
SNB-75 CNS = tested on: SNB-75 CNS
SR leukemia = tested on: SR leukemia
SW-620 colon = tested on: SW-620 colon
T-47D breast = tested on: T-47D breast
TK-10 renal = tested on: TK-10 renal
U251 CNS = tested on: U251 CNS
UACC-257 melanoma = tested on: UACC-257 melanoma
UACC-62 melanoma = tested on: UACC-62 melanoma
UO-31 renal = tested on: UO-31 renal

Question: For COC(=O)/C=C\c1ccc2c(c1)CC1(C2)Cc2ccc(/C=C/C(=O)OC)cc2C1 (stereo unspecified), which TGI (786-0 renal) is on record?
Answer: The TGI was greater than 31.6 µM.

Question: What about the TGI (A549 NSCLC) of the same molecule?
Answer: The TGI was greater than 31.6 µM.

Question: And the TGI (ACHN renal)?
Answer: Its TGI is greater than 31.6 µM.

Question: And the TGI (CAKI-1 renal)?
Answer: Its TGI is greater than 100 µM.

Question: What about the TGI (CCRF-CEM leukemia) of the same molecule?
Answer: The TGI was greater than 31.6 µM.

Question: What about the TGI (COLO 205 colon) of the same molecule?
Answer: The TGI was greater than 31.6 µM.

Question: What about the TGI (DU-145 prostate) of the same molecule?
Answer: Its TGI is greater than 100 µM.

Question: What about the TGI (EKVX NSCLC) of the same molecule?
Answer: Its TGI is greater than 31.6 µM.

Question: And the TGI (HCC-2998 colon)?
Answer: The TGI was greater than 31.6 µM.

Question: What about the TGI (HCT-116 colon) of the same molecule?
Answer: The TGI was greater than 31.6 µM.

Question: And the TGI (HCT-15 colon)?
Answer: The TGI was greater than 31.6 µM.

Question: And the TGI (HL-60(TB) leukemia)?
Answer: Its TGI is greater than 31.6 µM.

Question: What about the TGI (HOP-62 NSCLC) of the same molecule?
Answer: The TGI was 25.3 µM.

Question: What about the TGI (HOP-92 NSCLC) of the same molecule?
Answer: The TGI was greater than 31.6 µM.

Question: What about the TGI (HS 578T breast) of the same molecule?
Answer: Its TGI is greater than 31.6 µM.

Question: And the TGI (HT29 colon)?
Answer: The TGI was greater than 31.6 µM.

Question: What about the TGI (IGROV1 ovarian) of the same molecule?
Answer: Its TGI is greater than 31.6 µM.

Question: And the TGI (K-562 leukemia)?
Answer: Its TGI is greater than 31.6 µM.

Question: And the TGI (KM12 colon)?
Answer: Its TGI is greater than 31.6 µM.

Question: And the TGI (LOX IMVI melanoma)?
Answer: Its TGI is greater than 31.6 µM.

Question: What about the TGI (M14 melanoma) of the same molecule?
Answer: The TGI was greater than 31.6 µM.

Question: What about the TGI (MALME-3M melanoma) of the same molecule?
Answer: Its TGI is greater than 31.6 µM.

Question: What about the TGI (MCF7 breast) of the same molecule?
Answer: The TGI was greater than 31.6 µM.

Question: What about the TGI (MDA-MB-231 breast) of the same molecule?
Answer: The TGI was greater than 31.6 µM.

Question: And the TGI (MDA-MB-435)?
Answer: Its TGI is greater than 31.6 µM.

Question: What about the TGI (MDA-N) of the same molecule?
Answer: The TGI was greater than 31.6 µM.

Question: What about the TGI (MOLT-4 leukemia) of the same molecule?
Answer: The TGI was greater than 31.6 µM.

Question: And the TGI (NCI-H226 lung)?
Answer: The TGI was greater than 31.6 µM.

Question: And the TGI (NCI-H23 lung)?
Answer: Its TGI is greater than 31.6 µM.

Question: And the TGI (NCI-H460 lung)?
Answer: The TGI was greater than 100 µM.

Question: And the TGI (NCI-H522 lung)?
Answer: The TGI was greater than 31.6 µM.

Question: What about the TGI (NCI/ADR-RES ovarian) of the same molecule?
Answer: The TGI was greater than 31.6 µM.

Question: What about the TGI (OVCAR-3 ovarian) of the same molecule?
Answer: Its TGI is greater than 31.6 µM.

Question: And the TGI (OVCAR-4 ovarian)?
Answer: Its TGI is greater than 31.6 µM.

Question: What about the TGI (OVCAR-5 ovarian) of the same molecule?
Answer: The TGI was greater than 31.6 µM.

Question: What about the TGI (OVCAR-8 ovarian) of the same molecule?
Answer: Its TGI is greater than 31.6 µM.

Question: What about the TGI (PC-3 prostate) of the same molecule?
Answer: Its TGI is greater than 31.6 µM.

Question: What about the TGI (RPMI-8226 leukemia) of the same molecule?
Answer: The TGI was greater than 31.6 µM.

Question: What about the TGI (RXF 393 renal) of the same molecule?
Answer: The TGI was greater than 31.6 µM.

Question: What about the TGI (SF-268 CNS) of the same molecule?
Answer: The TGI was greater than 100 µM.

Question: And the TGI (SF-295 CNS)?
Answer: The TGI was greater than 31.6 µM.

Question: And the TGI (SF-539 CNS)?
Answer: Its TGI is greater than 31.6 µM.

Question: And the TGI (SK-MEL-28 melanoma)?
Answer: Its TGI is greater than 100 µM.

Question: And the TGI (SK-MEL-5 melanoma)?
Answer: Its TGI is greater than 31.6 µM.

Question: And the TGI (SK-OV-3 ovarian)?
Answer: The TGI was greater than 31.6 µM.

Question: And the TGI (SN12C renal)?
Answer: The TGI was greater than 31.6 µM.

Question: What about the TGI (SNB-19 CNS) of the same molecule?
Answer: Its TGI is greater than 100 µM.

Question: What about the TGI (SNB-75 CNS) of the same molecule?
Answer: Its TGI is greater than 100 µM.

Question: What about the TGI (SR leukemia) of the same molecule?
Answer: The TGI was greater than 31.6 µM.

Question: And the TGI (SW-620 colon)?
Answer: Its TGI is greater than 100 µM.

Question: What about the TGI (T-47D breast) of the same molecule?
Answer: The TGI was greater than 31.6 µM.

Question: What about the TGI (TK-10 renal) of the same molecule?
Answer: The TGI was greater than 31.6 µM.

Question: And the TGI (U251 CNS)?
Answer: Its TGI is greater than 31.6 µM.

Question: What about the TGI (UACC-257 melanoma) of the same molecule?
Answer: Its TGI is greater than 31.6 µM.

Question: And the TGI (UACC-62 melanoma)?
Answer: The TGI was greater than 31.6 µM.

Question: And the TGI (UO-31 renal)?
Answer: The TGI was greater than 31.6 µM.

— PubChem BioAssay (NCI)
